Patent publication US5668170A, “Composition and method enhancing transdermal electrotransport agent delivery” (ALZA Corporation, priority 1996, dated 1997)
Several values for one entry are separate records, joined by “and”; a condition that tells them apart may be missing. Identical values can stand only once. Counter-ions that a name gives are not always drawn. Like-named read-outs stand apart in the source and are kept apart here.

Columns and labels:
[1] = Micelle formation of tetracaine; format: physicochemical
Experimental: Tetracaine is a much less electrophilic molecule than metoclopramide since it is positively charged at its tertiary amine group, but the rest of the molecule is very hydrophobic. Concentrations of tetracaine higher than 20 mg/ml (75 mM) lead to the formation of micelles, due to the highly surfactant nature of the drug. Lower concentrations of tetracaine may lead to a better showing of the effect of the enhancer.

[2] = hydrophile-lipophile balance of the enhancer; cited from earlier work
[3] = for effect on skin resistance / resistivity (in words) / effect on metoclopramide mass flux (in words): compared with control without enhancer; for Normalized Cell Voltage (after 5 hrs) / Normalized Metoclopramide Mass Flux (after 5 hrs): metoclopramide HCl 100 mg/ml, 100 μA/cm^2, 32° C.; for enhancer performance (in words): metoclopramide electrotransport
[4] = tetracaine; electrotransport pretreatment with the enhancer
Experimental: Solutions of the drug to be transported through the skin disks 42, and each of the electrotransport enhancers to be tested were placed at different times in the anodic donor compartment 44. Dulbecco's phosphate buffered saline (approximately 0.1 5N NaCl, with minor amounts of other ions, pH 7.0) was placed in the cathodic receptor compartment 46. The skin resistance was calculated from the voltages applied by the galvanostat according to Ohm's law:
The electrotransport of tetracaine was also conducted with surfactant flux enhancers, such as decyl methyl sulfoxide.

[5] = Electrotransport of sodium ketoprofen with enhancer (Example 5); format: in vitro ADME, human; conditions: for effect of 20% ethanol solvent on enhancer performance (in words) / effect on ketoprofen mass flux (in words) / effect on skin conductivity (in words): 100 mM ketoprofen; for effect of 20% ethanol solvent on enhancer performance (in words): 20 wt % ethanol/water; for effect on ketoprofen mass flux (in words) / effect on skin conductivity (in words): water alone
Experimental: (§1) Each floating epidermis was stretched essentially flat.
Sodium ketoprofen in aqueous solution forms an univalent anionic anti-inflammatory agent. The electrotransport delivery of 100 mM ketoprofen in the presence of cationic and non-ionic surfactants was tested under the conditions described in Example 1. The enhancers used were laurylamine and dimethyl lauramide. Two sets of tests were conducted. The first in aqueous solution, and the second in 20 wt % ethanol/water solution.

[6] = for Normalized Cell Voltage (after 5 hrs): relative to no ethanol (1.00)
Experimental: as §1
The prior art teaches that ethanol can be used to enhance both passive and electrically-assisted transdermal drug delivery. […] The agent utilized, metoclopramide HCl, was placed in the donor compartment at about 100 mg metoclopramide/ml, and Dulbecco's phosphate buffered saline (pH 7) was placed in the receptor compartment. The system was maintained at 32° C. and a constant electric current of 100 μA/cm^2 was applied throughout the procedure.

[7] = Electrotransport of di-sodium cromolyn with enhancer (Example 4); format: in vitro ADME, human; conditions: concentration not given in b26; for lowering of skin resistivity: cromolyn donor, dodecylpyrrolidone 100 mM; for increase of cromolyn flux: dodecylpyrrolidone 100 mM in donor
Description: as §1
Di-sodium cromolyn, when in aqueous solution, forms a divalent anion. The experimental conditions were as described in Example 1, except the cromolyn donor solution was placed in the cathodic compartment 46 and the Dulbecco's phosphate buffered saline receptor solution was placed in the anodic compartment 44; and the stratum corneum layer of skin disk 42 was mounted to face the cathodic compartment 46.
Dodecylpyrrolidone, when added to the donor solution, at a concentration of 100 mM, increased cromolyn flux by 50 to 100% and lowered skin resistivity by 30 to 70%.

[8] = relative to control without enhancer (1.00), enhancer 10 mM
[9] = relative to control (1.00), dodecylpyrrolidone 100 mM

**Q.** For CCCCNc1ccc(C(=O)OCCN(C)C)cc1 [tetracaine HCl], which “concentration leading to the formation of micelles” value [1] is on record?
**A.** The value was “higher than 20 mg/ml and > 75 mM”.

**Q.** Which “HLB No.” value [2] does the source give for “lauramphocarboxy propionate [Lauramphocarboxypropionate, reference compound]” here?
**A.** Its value is 54.

**Q.** And the “effect on skin resistance / resistivity (in words)” value ([3]; metoclopramide HCl donor)?
**A.** Its value is “did not appear to affect”.

**Q.** And the “Normalized Cell Voltage (after 5 hrs)” value [3, 8]?
**A.** The value was “.93”.

**Q.** With CCCCCCCCCC[S+](C)[O-] (stereo not shown) [n-Decyl methyl sulfoxide] as the molecule, how does the “HLB No.” value [2] read?
**A.** Its value is 32.

**Q.** What about the “Normalized Cell Voltage (after 5 hrs)” value [3, 8] of the same molecule?
**A.** The value was “.44”.

**Q.** What about the “decrease of cell voltage (in words)” value [4] of the same molecule?
**A.** The value was “highly beneficial”.

**Q.** Which results are given for CCCCCCCCCCCCN [Lauryl amine]?
**A.** HLB No. [2]: 11; effect on metoclopramide mass flux (in words) [3]: significantly decreased the flux; Normalized Cell Voltage (after 5 hrs) [3, 8]: .22; Normalized Metoclopramide Mass Flux (after 5 hrs) [3, 8]: 0.136; effect of 20% ethanol solvent on enhancer performance (in words) [5]: improved the performance of both enhancers; effect on ketoprofen mass flux (in words) [5]: increased mass flux; effect on skin conductivity (in words) [5]: increased mass flux and skin conductivity

**Q.** With CCCCCCCCCCCCOC(=O)C(C)O (stereo not shown) [Lauryl lactate, reference compound] as the molecule, how does the “HLB No.” value [2] read?
**A.** The value was 4.7.

**Q.** What about the “effect on skin resistance / resistivity (in words)” value ([3]; metoclopramide HCl donor) of the same molecule?
**A.** The value was “reduced skin resistivity”.

**Q.** And the “Normalized Cell Voltage (after 5 hrs)” value [3, 8]?
**A.** The value was “.92”.

**Q.** What does the source list for CCO [Ethanol, ethanol]?
**A.** effect on mass flux of metoclopramide (in words) [6]: decreased the mass flux of metoclopramide; effect on skin conductivity (in words) ([6]; 10 to 30 wt % ethanol): decreased the mass flux of metoclopramide and the skin conductivity; Normalized Cell Voltage (after 5 hrs) ([6]; ethanol 10 wt %): 0.82; Normalized Cell Voltage (after 5 hrs) ([6]; ethanol 20 wt %): 0.70; Normalized Cell Voltage (after 5 hrs) ([6]; ethanol 30 wt %): 0.78

**Q.** With CCCCCCCCCCCC(=O)N(C)C [Dimethyl lauramide] as the molecule, how does the “HLB No.” value [2] read?
**A.** Its value is 8.

**Q.** What about the “effect on metoclopramide mass flux (in words)” value [3] of the same molecule?
**A.** The value was “almost doubling of the amount of the drug delivered”.

**Q.** What about the “skin resistance relative to control” value ([3]; metoclopramide HCl donor, dimethyl lauramide added) of the same molecule?
**A.** The value was “about one-half that of the control”.

**Q.** What about the “Normalized Cell Voltage (after 5 hrs)” value [3, 8] of the same molecule?
**A.** The value was “.45”.

**Q.** What about the “Normalized Metoclopramide Mass Flux (after 5 hrs)” value [3, 8] of the same molecule?
**A.** The value was 1.87.

**Q.** What about the “Normalized Cell Voltage (after 5 hrs)” value ([3]; relative to control without enhancer (1.00), enhancer 10 mM, listed as dimethyl lauramide) of the same molecule?
**A.** Its value is 0.45.

**Q.** And the “effect of 20% ethanol solvent on enhancer performance (in words)” value [5]?
**A.** The value was “improved the performance of both enhancers”.

**Q.** What about the “effect on ketoprofen mass flux (in words)” value [5] of the same molecule?
**A.** The value was “increased mass flux”.

**Q.** And the “effect on skin conductivity (in words)” value [5]?
**A.** The value was “increased mass flux and skin conductivity”.

**Q.** What about the “effect on ketoprofen flux and conductivity (in words)” value ([5]; dimethyl lauramide added to ketoprofen, general description) of the same molecule?
**A.** The value was “increase in both flux and conductivity”.

**Q.** Which results are given for “Sorbitan monolaurate [reference compound]”?
**A.** HLB No. [2]: 8.6; effect on skin resistance / resistivity (in words) ([3]; metoclopramide HCl donor): fail to have a significant effect; Normalized Cell Voltage (after 5 hrs) [3, 8]: .98

**Q.** What does the source list for CCCCCCCCCCCCOS(=O)(=O)[O-].[Na+] [Sodium lauryl sulfate]?
**A.** HLB No. [2]: 40; effect on metoclopramide mass flux (in words) [3]: enhanced mass flux; enhancer performance (in words) [3]: superior characteristics; Normalized Cell Voltage (after 5 hrs) [3, 8]: .76; Normalized Metoclopramide Mass Flux (after 5 hrs) [3, 8]: 1.64

**Q.** For CCCCCCCCCCCCN1CCCC1=O [Dodecyl pyrrolidone], which “HLB No.” value [2] is on record?
**A.** Its value is 8.

**Q.** What about the “enhancer performance (in words)” value ([3]; listed as dodecyl pyrrolidone) of the same molecule?
**A.** The value was “superior characteristics”.

**Q.** What about the “enhancer performance (in words)” value ([3]; listed as dodecylpyrrolidone) of the same molecule?
**A.** The value was “very effective enhancers”.

**Q.** What about the “Normalized Cell Voltage (after 5 hrs)” value [3, 9] of the same molecule?
**A.** The value was “.35”.

**Q.** And the “Normalized Metoclopramide Mass Flux (after 5 hrs)” value [3, 9]?
**A.** The value was 1.68.

**Q.** And the “lowering of skin resistivity” value ([7]; listed as Dodecylpyrrolidone)?
**A.** The value was 30 to 70%.

**Q.** What about the “lowering of skin resistivity” value ([7]; listed as dodecyl pyrrolidone) of the same molecule?
**A.** The value was “more than 30%”.

**Q.** What about the “increase of cromolyn flux” value ([7]; listed as Dodecylpyrrolidone) of the same molecule?
**A.** The value was 50 to 100%.

**Q.** What about the “increase of cromolyn flux” value ([7]; listed as dodecyl pyrrolidone) of the same molecule?
**A.** The value was “more than 50%”.
